According to patent publication US12673961B2 (Agios Pharmaceuticals, Inc., priority 2022, dated 2026):

Molecular target: T1, human PAH with the R408W mutation (Homo sapiens, UniProt P00439, R408W)
T1 construct: expressed in transfected cells
T1 sequence (P00439 1-452 R408W): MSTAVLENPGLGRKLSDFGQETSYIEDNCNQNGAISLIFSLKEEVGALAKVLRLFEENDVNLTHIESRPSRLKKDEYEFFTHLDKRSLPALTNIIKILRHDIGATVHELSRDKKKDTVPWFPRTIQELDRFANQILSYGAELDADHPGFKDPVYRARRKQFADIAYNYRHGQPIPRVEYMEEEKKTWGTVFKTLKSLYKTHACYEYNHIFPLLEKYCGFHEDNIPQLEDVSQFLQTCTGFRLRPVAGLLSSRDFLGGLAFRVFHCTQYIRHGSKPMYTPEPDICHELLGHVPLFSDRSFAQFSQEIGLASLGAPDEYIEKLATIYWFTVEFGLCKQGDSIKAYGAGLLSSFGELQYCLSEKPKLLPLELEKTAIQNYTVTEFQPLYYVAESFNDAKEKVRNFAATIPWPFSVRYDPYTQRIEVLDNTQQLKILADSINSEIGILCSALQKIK
Experiment: Cell Based Phenylalanine Flux Assay;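 further: Ten-point dose curve from 2-fold serial dilutions, run in duplicate at 0.5% DMSO final, tracer step used 20 µM sepiapterin and 800 µM labeled phenylalanine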
Settings: A375 cells expressing human R408W PAH; 24 hrs compound incubation; 13C-Tyrosine by LC-MS; average where tested multiple times; read-out: AC50

Compared with `Cc1cccc2cc([C@H]3c4nc[nH]c4CCN3C(=O)c3nnc(C(C)(C)F)o3)nn12` [Example 939, (R)-(5-(2-fluoropropan-2-yl)-1,3,4-oxadiazol-2-yl)(4-(7-methylpyrazolo[1,5-a]pyridin-2-yl)-6,7-dihydro-1H-imidazo[4,5-c]pyridin-5(4H)-yl)methanone], `CC(C)(F)c1nnc(C(=O)N2CCc3[nH]cnc3[C@H]2c2cc3cccc(Cl)n3n2)o1` [Example 969, (S)-(4-(7-chloropyrazolo [1,5-a]pyridin-2-yl)-6,7-dihydro-1H-imidazo[4,5-c]pyridin-5(4H)-yl)(5-(2-fluoropropan-2-yl)-1,3,4-oxadiazol-2-yl)methanone] is lower in AC50: > 5000 nM for the first, < 500 nM for the second.

First: O=C(c1ocnc1C(F)F)N1CCc2[nH]cnc2[C@H]1c1cc2cccc(Cl)n2n1 [Example 958, (S)-(4-(7-chloropyrazolo [1,5-a]pyridin-2-yl)-6,7-dihydro-1H-imidazo[4,5-c]pyridin-5(4H)-yl)(4-(difluoromethyl)oxazol-5-yl)methanone]
Second: O=C(c1ccnn1C(F)F)N1CCc2[nH]cnc2[C@@H]1c1cc2cccc(Cl)n2n1 [Example 1065, (R)-(4-(7-chloropyrazolo [1,5-a]pyridin-2-yl)-6,7-dihydro-1H-imidazo[4,5-c]pyridin-5(4H)-yl)(1-(difluoromethyl)-1H-pyrazol-5-yl)methanone]
The AC50 of the first is lower: < 500 nM for the first, 1000 to 5000 nM for the second.

`O=C(c1nnc(-c2cnccn2)o1)N1CCc2[nH]cnc2[C@H]1c1cc2c(F)cccn2n1` [Example 962, (S)-(4-(4-fluoropyrazolo[1,5-a]pyridin-2-yl)-6,7-dihydro-1H-imidazo[4,5-c]pyridin-5(4H)-yl)(5-(pyrazin-2-yl)-1,3,4-oxadiazol-2-yl)methanone] and `O=C(c1nnc(-c2cnccn2)o1)N1CCc2[nH]cnc2[C@H]1c1cc2cccc(Cl)n2n1` [Example 979, (S)-(4-(7-chloropyrazolo [1,5-a]pyridin-2-yl)-6,7-dihydro-1H-imidazo[4,5-c]pyridin-5(4H)-yl)(5-(pyrazin-2-yl)-1,3,4-oxadiazol-2-yl)methanone] cannot be ordered by AC50: < 500 nM for the first, < 500 nM for the second.

First: O=C(c1nnc(-c2cnn(C(F)F)c2)o1)N1CCc2[nH]cnc2[C@H]1c1cc2cccc(F)n2n1 [Example 984, (S)-(5-(1-(difluoromethyl)-1H-pyrazol-4-yl)-1,3,4-oxadiazol-2-yl)(4-(7-fluoropyrazolo[1,5-a]pyridin-2-yl)-6,7-dihydro-1H-imidazo [4,5-c]pyridin-5(4H)-yl)methanone]
Second: Cn1cc(-c2nnc(C(=O)N3CCc4[nH]cnc4[C@@H]3c3cc4cccc(Cl)n4n3)o2)cn1 [Example 1067, (R)-(4-(7-chloropyrazolo [1,5-a]pyridin-2-yl)-6,7-dihydro-1H-imidazo[4,5-c]pyridin-5(4H)-yl)(5-(1-methyl-1H-pyrazol-4-yl)-1,3,4-oxadiazol-2-yl)methanone]
The AC50 of the first is lower: 500 to 1000 nM for the first, > 5000 nM for the second.

Going from `Cc1cccn2nc([C@@H]3c4nc[nH]c4CCN3C(=O)c3nnc(C(C)(C)C)o3)cc12` [Example 1022, (S)-(5-(tert-butyl)-1,3,4-oxadiazol-2-yl)(4-(4-methylpyrazolo[1,5-a]pyridin-2-yl)-6,7-dihydro-1H-imidazo[4,5-c]pyridin-5(4H)-yl)methanone] to `Cc1cccn2nc([C@H]3c4nc[nH]c4CCN3C(=O)c3nnc(C(C)(C)C)o3)cc12` [Example 1023, (R)-(5-(tert-butyl)-1,3,4-oxadiazol-2-yl)(4-(4-methylpyrazolo[1,5-a]pyridin-2-yl)-6,7-dihydro-1H-imidazo[4,5-c]pyridin-5(4H)-yl)methanone], the AC50 rises from < 500 nM to > 5000 nM.

`Cn1ccc(-c2nnc(C(=O)N3CCc4[nH]cnc4[C@@H]3c3cc4cccc(C(F)(F)F)n4n3)o2)n1` [Example 1031, (R)-(5-(1-methyl-1H-pyrazol-3-yl)-1,3,4-oxadiazol-2-yl)(4-(7-(trifluoromethyl)pyrazolo[1,5-a]pyridin-2-yl)-6,7-dihydro-1H-imidazo [4,5-c]pyridin-5(4H)-yl)methanone] and `O=C(c1nnc(-c2ccccn2)o1)N1CCc2[nH]cnc2[C@@H]1c1cc2cccc(Cl)n2n1` [Example 1043, (R)-(4-(7-chloropyrazolo [1,5-a]pyridin-2-yl)-6,7-dihydro-1H-imidazo[4,5-c]pyridin-5(4H)-yl)(5-(pyridin-2-yl)-1,3,4-oxadiazol-2-yl) methanone] cannot be ordered by AC50: > 5000 nM for the first, > 5000 nM for the second.

Compared with `Cn1ncnc1C(=O)N1CCc2[nH]cnc2[C@H]1c1cc2c(Cl)cccn2n1` [Example 1050, (S)-(4-(4-chloropyrazolo [1,5-a]pyridin-2-yl)-6,7-dihydro-1H-imidazo[4,5-c]pyridin-5(4H)-yl)(1-methyl-1H-1,2,4-triazol-5-yl)methanone], `Cc1nc(C(=O)N2CCc3[nH]cnc3[C@H]2c2cc3c(Cl)cccn3n2)n(C)n1` [Example 1074, (S)-(4-(4-chloropyrazolo [1,5-a]pyridin-2-yl)-6,7-dihydro-1H-imidazo[4,5-c]pyridin-5(4H)-yl)(1,3-dimethyl-1H-1,2,4-triazol-5-yl)methanone] is higher in AC50: < 500 nM for the first, 500 to 1000 nM for the second.

First: Cc1cccn2nc([C@H]3c4nc[nH]c4CCN3C(=O)c3nc(C4CC4)nn3C)cc12 [Example 1059]
Second: Cn1nc(C2CC2)nc1C(=O)N1CCc2[nH]cnc2[C@@H]1c1cc2c(Cl)cccn2n1 [Example 1073, (R)-(4-(4-chloropyrazolo [1,5-a]pyridin-2-yl)-6,7-dihydro-1H-imidazo[4,5-c]pyridin-5(4H)-yl)(3-cyclopropyl-1-methyl-1H-1,2,4-triazol-5-yl)methanone]
The AC50 of the first is higher: > 5000 nM for the first, 1000 to 5000 nM for the second.

First: Cn1nc(C(F)(F)F)nc1C(=O)N1CCc2[nH]cnc2[C@H]1c1cc2c(C(F)(F)F)cccn2n1 [Example 1062, (S)-(1-methyl-3-(trifluoromethyl)-1H-1,2,4-triazol-5-yl)(4-(4-(trifluoromethyl)pyrazolo[1,5-a]pyridin-2-yl)-6,7-dihydro-1H-imidazo [4,5-c]pyridin-5(4H)-yl)methanone]
Second: Cn1nc(C(F)F)nc1C(=O)N1CCc2[nH]cnc2[C@@H]1c1cc2ccc(C(F)(F)F)cn2n1 [Example 1127, (R)-(3-(difluoromethyl)-1-methyl-1H-1,2,4-triazol-5-yl)(4-(6-(trifluoromethyl)pyrazolo[1,5-a]pyridin-2-yl)-6,7-dihydro-1H-imidazo [4,5-c]pyridin-5(4H)-yl)methanone]
The AC50 of the first is lower: < 500 nM for the first, 1000 to 5000 nM for the second.

`O=C(c1ocnc1C(F)F)N1CCc2[nH]cnc2[C@H]1c1cc2ccc(C(F)(F)F)cn2n1` [Example 1104, (S)-(4-(difluoromethyl)oxazol-5-yl)(4-(6-(trifluoromethyl)pyrazolo [1,5-a]pyridin-2-yl)-6,7-dihydro-1H-imidazo[4,5-c]pyridin-5(4H)-yl)methanone] and `CC(C)(O)c1nc(C(F)F)c(C(=O)N2CCc3[nH]cnc3[C@H]2c2cc3ccc(C(F)(F)F)cn3n2)o1` [Example 1116, (S)-(4-(difluoromethyl)-2-(2-hydroxypropan-2-yl)oxazol-5-yl)(4-(6-(trifluoromethyl)pyrazolo[1,5-a]pyridin-2-yl)-6,7-dihydro-1H-imidazo [4,5-c]pyridin-5(4H)-yl)methanone] cannot be ordered by AC50: < 500 nM for the first, < 500 nM for the second.

Compared with `CC(C)(F)c1nnc(C(=O)N2CCc3[nH]cnc3[C@H]2c2cc3c(Cl)cccn3n2)o1` [Example 1109, (S)-(4-(4-chloropyrazolo [1,5-a]pyridin-2-yl)-6,7-dihydro-1H-imidazo[4,5-c]pyridin-5(4H)-yl)(5-(2-fluoropropan-2-yl)-1,3,4-oxadiazol-2-yl)methanone], `CC(C)(C)c1nnc(C(=O)N2CCc3[nH]cnc3[C@@H]2c2cc3ccc(F)cn3n2)o1` [Example 1125, (R)-(5-(tert-butyl)-1,3,4-oxadiazol-2-yl)(4-(6-fluoropyrazolo[1,5-a]pyridin-2-yl)-6,7-dihydro-1H-imidazo[4,5-c]pyridin-5(4H)-yl)methanone] is higher in AC50: < 500 nM for the first, 1000 to 5000 nM for the second.

First: Cc1ccc2cc([C@@H]3c4nc[nH]c4CCN3C(=O)c3nnc(C(C)(C)C)o3)nn2c1 [Example 1110, (S)-(5-(tert-butyl)-1,3,4-oxadiazol-2-yl)(4-(6-methylpyrazolo[1,5-a]pyridin-2-yl)-6,7-dihydro-1H-imidazo[4,5-c]pyridin-5(4H)-yl)methanone]
Second: CC(C)(O)c1nc(C(F)F)c(C(=O)N2CCc3[nH]cnc3[C@@H]2c2cc3ccc(C(F)(F)F)cn3n2)o1 [Example 1117, (R)-(4-(difluoromethyl)-2-(2-hydroxypropan-2-yl)oxazol-5-yl)(4-(6-(trifluoromethyl)pyrazolo[1,5-a]pyridin-2-yl)-6,7-dihydro-1H-imidazo[4,5-c]pyridin-5(4H)-yl)methanone]
The AC50 of the first is lower: 500 to 1000 nM for the first, > 5000 nM for the second.

Compared with `O=C(c1nnc(-c2ccn(C(F)F)n2)o1)N1CCc2[nH]cnc2[C@H]1c1cc2c(Cl)cccn2n1` [Example 1118, (S)-(4-(4-chloropyrazolo [1,5-a]pyridin-2-yl)-6,7-dihydro-1H-imidazo[4,5-c]pyridin-5(4H)-yl)(5-(1-(difluoromethyl)-1H-pyrazol-3-yl)-1,3,4-oxadiazol-2-yl)methanone], `O=C(c1ccnn1C(F)F)N1CCc2[nH]cnc2[C@@H]1c1cc2cc(C(F)(F)F)ccn2n1` [Example 1133, (R)-(1-(difluoromethyl)-1H-pyrazol-5-yl)(4-(5-(trifluoromethyl)pyrazolo [1,5-a]pyridin-2-yl)-6,7-dihydro-1H-imidazo[4,5-c]pyridin-5(4H)-yl)methanone] is higher in AC50: < 500 nM for the first, 1000 to 5000 nM for the second.
